The values below come from PubChem BioAssay (NCI).

“And” between values parts separate entries of the source, which are not always exact repeats. Identical values can stand only once.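 48-hour exposure; five concentrations; linearly interpolated endpoints. At the GI50, growth is halved. TGI marks complete inhibition of growth.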

Common to all, as to experiment: NCI anticancer screen, dose series, 48 h
In assay [1] the test system is HCT-15 colon.
In assay [2] the test system is SK-OV-3 ovarian.
Assay [3] deals with CCRF-CEM leukemia.
The subject of assay [4] is SW-620 colon.
Assay [5] deals with CAKI-1 renal.
In assay [6] the test system is OVCAR-3 ovarian.
The subject of assay [7] is COLO 205 colon.
Assay [8] relates to MDA-MB-435.
Assay [9] concerns DU-145 prostate.
Assay [10] concerns BT-549 breast.

Take `COc1cccc(-c2cc(C(=O)Nc3ccc(Cl)cc3)nc(N)n2)c1`: the TGI in assay [1], in [2], in assay [3], in assay [4], in assay [5] and in assay [6] was more than 100 µM each time. In addition, the TGI in [7] amounted to 71.4 µM.
Regarding `CN1CCN2c3ccccc3CC(C#N)(C#N)C2C1` (stereo not drawn), the TGI in assay [1], in [2], in assay [3], in [4], in assay [5] and in assay [6] was more than 100 µM each time. This compound also displayed a TGI in assay [7] of more than 100 µM.
Regarding `C[C@]12CC/C(=N\O)C[C@@H]1CC[C@@H]1[C@@H]2CC[C@]2(C)/C(=N/O)CC[C@@H]12`, the GI50 in assay [1] is 43.3 µM; in [2], 51.4 µM; in assay [8] it was 24.8 µM; in [9], 80.7 µM; in [4], 57.1 µM; in [5], 25.4 µM. Besides, the values for the GI50 in [6] and in [7] were 17.4 µM and 35.8 µM, respectively. For the same compound, the TGI in assay [1] is more than 100 µM; in assay [2], more than 100 µM; in [8] it was 70.8 µM; in assay [9], more than 100 µM; in assay [4], more than 100 µM; in assay [5], 86.2 µM. Besides, the TGI was 59.1 µM in assay [6] and more than 100 µM in [7].
In the case of `Clc1cc2nc[nH]c2cc1Cl`, the TGI in [1], in assay [2], in [3], in [4], in assay [5] and in [6] was more than 100 µM throughout. Further, the TGI in [7] was more than 100 µM.
As to `CCOc1cccc2sc(N)nc12`, the TGI in assay [1], in assay [2], in [4], in assay [5], in [6] and in assay [7] was more than 100 µM throughout.
On to `COC(=O)CCC(=O)Nc1cccc(C(F)(F)F)c1`, for which the TGI in [1], in [2], in [3], in assay [4], in assay [5] and in assay [6] was more than 100 µM in each case. In assay [7], this compound returned a TGI of more than 100 µM.
Consider `Nc1nc(=O)c2[nH]cnc2n1O`, for which the TGI in [1], in assay [2], in assay [9], in [3], in assay [4] and in [10] was more than 100 µM each time. Further, the TGI in [6] and in assay [7] was more than 100 µM each time.
Consider `N#CC1=C(c2ccccc2)NN(Cc2ccccc2)C(c2ccc(Cl)cc2)CC1=O` (stereo not drawn), for which the TGI in assay [1] was 90.6 µM; in assay [3], more than 100 µM; in assay [4], 54.8 µM; in assay [5], 76.7 µM; in assay [7], more than 100 µM.
Consider `CC1OC(OC23C(=O)CC(C)(O)CC2(O)C=CC2=C3C(=O)c3ccc(C4CC(OC5CCC(OC6CC(O)C(O)C(C)O6)C(C)O5)C(O)C(C)O4)c(O)c3C2=O)CCC1O` (stereo not drawn), for which the TGI in assay [2] was 86.2 µM and 46 µM; in assay [3] it was more than 100 µM; in [4], 15.7 µM and 10.9 µM; in assay [5], 33.5 µM and 34.5 µM; in [6], 29.8 µM and 9.07 µM; in assay [7] it was 11.8 µM and 8.15 µM. For the same compound, in [6], the GI50 is 15.9 µM and 2.86 µM.
Take `COc1cccc(-c2cc(=O)c3cc(C)c(C)c(C(=O)O)c3o2)c1`: the TGI in [1], in assay [2], in assay [3], in assay [4], in assay [6] and in assay [7] was more than 100 µM in each case.
`COC(=O)c1ccc(CS(=O)(=O)c2ccccc2)cc1`: the TGI in [1], in assay [2], in [3], in assay [4], in [5] and in [6] was more than 100 µM each time. For the same compound, the TGI in [7] is more than 100 µM.
As to `COC1=CC(=O)c2c(O)c3c(c(O)c2C1=O)OC1(Oc2c(cc4cc(C)oc(=O)c4c2O)CC1O)C3O` (stereo not drawn), the TGI in assay [1], in assay [2], in [8], in [9], in assay [3] and in assay [4] was more than 100 µM throughout. For the same compound, the TGI in assay [5] is 53.9 µM; in assay [6], more than 100 µM; in [7], more than 100 µM.
As to `C[C@]12CC[C@H](OC(=O)Cc3ccc(N(CCCl)CCCl)cc3)CC1CC[C@@H]1C2CC[C@]2(C)NC(=O)CCC12` (stereo partly drawn), the TGI in assay [1] stood at 30.6 µM; in assay [2], 33.8 µM; in assay [3], 18 µM; in assay [4], 24.7 µM; in assay [5] it was 15.3 µM; in assay [6] it was 14.8 µM. The TGI in [7] is 18.4 µM.
On to `CCOC(=O)C1Nc2ccc([N+](=O)[O-])cc2[C@H]2OCC[C@@H]12` (stereo partly drawn), for which the TGI in assay [1], in [2], in [3], in assay [4], in assay [5] and in assay [6] was more than 100 µM in each case. For the same compound, the TGI in assay [7] is more than 100 µM.
With `O=c1/c(=C/c2ccccc2O)sc2nc3ccccc3n12`, the TGI in assay [1] was 49.8 µM; in assay [3], 45.6 µM; in assay [4] it was more than 100 µM; in assay [5] it was more than 100 µM; in assay [6], 98.7 µM.
Turning to `COc1ccc(C(=C(C#N)C#N)c2ccc(OC)cc2)cc1`, the TGI in assay [1], in assay [3], in assay [4], in assay [5], in [6] and in assay [7] was more than 100 µM each time.
As for `CCOC(=O)NC(=O)c1cn(CC(=O)NCC(=O)NCC(=O)N2CCN(CCn3c(C)nc(C(N)=O)c3N)CC2)c(=O)[nH]c1=O`, the TGI in assay [1], in assay [2], in assay [3], in assay [4], in assay [5] and in assay [7] was more than 100 µM in each case.
